Data as given in patent publication US20160193291A1, “METHOD OF REGULATING NEURONAL AXON ELONGATION” (RIKEN, priority 2012, published 2016).

Key:
Format in all cases: cell-based, chick (Gallus gallus)
[1] = test system: growth cones of primary culture DRG neurons; assay: Endocytosis of Alexa Fluor dextran (macropinocytosis) in growth cones
[2] = test system: growth cones of DRG neurons; assay: Growth cone collapse assay (growth cone surface area)
Protocol: Dissociated DRG neurons from embryonic day 7-9 chicks were cultured for at least 12 h in an F-12 medium (Invitrogen) containing 50 ng/ml NGF. […] Subsequently, the culture medium was changed to BSS buffer. […] In experiments using epoxomicin, the cells were treated with […] epoxomicin for 15 min before the addition of […] Sema3A.
The growth cone area was defined as a hand-like region extending from a distal part of a neurite to a growth cone neck whose width is equal to the width of the neurite. The width of each neurite was calculated by measuring the width of the neurite region at a location that was 30 μm apart from the distal part of each neurite. This calculation was adopted because the mean length of the control growth cone was less than 30 μm.

DRG neurons = assay: Neurite elongation (neurite length) of transfected DRG neurons; settings: 15 min pretreatment with 10 μM EIPA
[3] = test system: Syx1B protein in growth cones; assay: Immunocytochemistry of Syx1B protein in growth cones; settings: for protein level of Syx1B normalized to that of SNAP25 in the growth cones: 10 min treatment
Protocol: After Sema3A or vehicle treatment, the cells were fixed with 4% PFA for 1 h at 37° C., followed by permeabilization with 0.3% Triton X-100 in PBS for 2 min at a room temperature.
The cells were then immediately washed three times with a blocking solution (1% BSA and 0.1% Triton X-100 PBS), followed by incubation with the blocking solution for 1 h at a room temperature, and were then incubated in the presence of anti-Syx1B (0.5 μg/ml) and anti-synaptosomal-associated protein 25 (SNAP25) antibody (1:500 dilution, clone SM-81; Sternberger Monpclonals) for 2 h at a room temperature. Immunofluorescence signals were visualized by incubation with Alexa Fluor 488-labeled donkey anti-rabbit antibody (Invitrogen) and Alexa Fluor 594-labeled donkey anti-mouse antibody (Invitrogen). The integrated fluorescence intensity of Syx1B in the growth cones was normalized to that of the SNAP 25 protein.

[4] = 15 min pretreatment with 10 μM EIPA
[5] = 15 min pretreatment with 100 μM EIPA

`CCN(c1nc(N)c(C(=O)N=C(N)N)nc1Cl)C(C)C` [EIPA, 5-(N-ethyl-N-isopropyl)amiloride] was tested, and the “effect on Sema3A-induced uptake of Alexa Flour 594-dextran” value [1, 4] was “suppressed”, the “effect on Syx1B knockdown-mediated accumulation of Alexa Fluor 594-dextran” value [1, 4] was “reversed” and the “effect on neurotoxin C1-induced uptake of Alexa Fluor 594-dextran” value [1, 5] was “blocked”. The “effect on Sema3A-induced growth cone collapse” value [2, 4] was “suppressed”, the “effect on Syx1B knockdown-mediated growth cone collapse” value [2, 4] was “reversed” and the “effect on neurotoxin C1-induced reduction in growth cone surface area” value [2, 5] was “blocked”. For the same molecule, the “effect on Syx1B knockdown-mediated reduced neurite elongation” value (DRG neurons) was “reversed”.

`O=c1cc(N2CCOCC2)oc2c(-c3ccccc3)cccc12` [LY294002, 2-(4-morpholinyl)-8-phenyl-1 (4H)-benzopyran-4-one] was tested, and the “protein level of Syx1B normalized to that of SNAP25 in the growth cones” value [3] was “significantly reduced”, the “macropinocytosis in the growth cones” value ([1]; 10 min LY294002 treatment) was “induced macropinocytosis” and the growth cone area ([2]; 10 min LY294002 treatment) was “induced reduction in growth cone area”.

`CC[C@H](C)[C@H](NC(=O)[C@H]([C@@H](C)CC)N(C)C(C)=O)C(=O)N[C@H](C(=O)N[C@@H](CC(C)C)C(=O)[C@@]1(C)CO1)[C@@H](C)O` [epoxomicin] was tested, and the “effect on Sema3A-induced suppression of Syx1B” value ([3]; 1 μM epoxomicin) was “suppressed”.

In the case of `C/C1=C\[C@H](C)C[C@H](C)OC(=O)C[C@H](c2ccc(O)cc2)NC(=O)[C@@H](Cc2c(Br)[nH]c3ccccc23)N(C)C(=O)[C@H](C)NC(=O)[C@@H](C)C1` [jasplakinolide], the “protein level of Syx1B normalized to that of SNAP25 in the growth cones” value [3] is reported as “not decreased” and the growth cone morphology [2] is reported as “induces growth cone collapse-like morphological changes”.
